Test results from patent US11180494B2, “Substituted amino acids as integrin inhibitors” (Pliant Therapeutics, Inc., priority 2018, dated 2021).

target: human integrin αvβ6 (Homo sapiens (Human), UniProt P06756+P18564); assay: Proximity-based integrin receptor binding assay (ALPHASCREEN) for inhibitor potency; conditions: inhibition of binding of TGF-b1 LAP to human integrin αvβ6; values given in ranges
Summary of the method: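 AlphaScreen: integrin, compound, TGF-b1 LAP, biotinylated anti-LAP antibody and acceptor beads incubated 2 hours, then streptavidin donor beads 30 minutes, at room temperature in 50 mM Tris-HCl pH 7.5, 0.1% BSA, 1 mM CaCl2 and MgCl2. Excitation 680 nm, emission 520-620 nm; IC50 by four-parameter logistic fit.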

Sequence of human integrin αvβ6 (P06756 31-992): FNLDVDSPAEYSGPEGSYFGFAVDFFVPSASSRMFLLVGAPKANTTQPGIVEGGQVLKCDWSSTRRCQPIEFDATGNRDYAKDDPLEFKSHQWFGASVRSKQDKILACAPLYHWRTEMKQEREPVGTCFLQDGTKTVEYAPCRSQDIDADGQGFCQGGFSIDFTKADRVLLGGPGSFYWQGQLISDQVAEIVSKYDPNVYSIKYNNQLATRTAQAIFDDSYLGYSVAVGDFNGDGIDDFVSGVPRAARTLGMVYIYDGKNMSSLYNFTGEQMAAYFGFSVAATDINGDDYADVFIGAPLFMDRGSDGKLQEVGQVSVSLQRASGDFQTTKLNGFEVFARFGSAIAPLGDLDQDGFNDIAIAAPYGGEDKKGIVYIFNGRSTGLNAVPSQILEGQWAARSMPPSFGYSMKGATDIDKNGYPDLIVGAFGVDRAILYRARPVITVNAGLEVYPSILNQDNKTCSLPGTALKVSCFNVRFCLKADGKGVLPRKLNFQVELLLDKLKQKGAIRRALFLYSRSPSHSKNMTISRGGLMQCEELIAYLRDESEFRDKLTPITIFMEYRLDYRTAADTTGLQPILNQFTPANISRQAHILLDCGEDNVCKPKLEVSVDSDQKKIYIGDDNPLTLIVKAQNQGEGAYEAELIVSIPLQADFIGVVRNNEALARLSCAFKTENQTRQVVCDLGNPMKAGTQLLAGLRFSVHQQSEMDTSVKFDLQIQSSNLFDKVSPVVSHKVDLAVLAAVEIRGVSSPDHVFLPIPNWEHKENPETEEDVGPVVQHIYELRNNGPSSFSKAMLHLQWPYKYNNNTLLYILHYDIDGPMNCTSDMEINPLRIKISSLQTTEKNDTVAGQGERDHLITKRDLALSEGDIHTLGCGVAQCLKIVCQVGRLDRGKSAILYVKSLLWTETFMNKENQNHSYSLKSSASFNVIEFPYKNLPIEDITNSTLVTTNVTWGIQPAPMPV
Sequence of human integrin αvβ6 (P18564 22-707): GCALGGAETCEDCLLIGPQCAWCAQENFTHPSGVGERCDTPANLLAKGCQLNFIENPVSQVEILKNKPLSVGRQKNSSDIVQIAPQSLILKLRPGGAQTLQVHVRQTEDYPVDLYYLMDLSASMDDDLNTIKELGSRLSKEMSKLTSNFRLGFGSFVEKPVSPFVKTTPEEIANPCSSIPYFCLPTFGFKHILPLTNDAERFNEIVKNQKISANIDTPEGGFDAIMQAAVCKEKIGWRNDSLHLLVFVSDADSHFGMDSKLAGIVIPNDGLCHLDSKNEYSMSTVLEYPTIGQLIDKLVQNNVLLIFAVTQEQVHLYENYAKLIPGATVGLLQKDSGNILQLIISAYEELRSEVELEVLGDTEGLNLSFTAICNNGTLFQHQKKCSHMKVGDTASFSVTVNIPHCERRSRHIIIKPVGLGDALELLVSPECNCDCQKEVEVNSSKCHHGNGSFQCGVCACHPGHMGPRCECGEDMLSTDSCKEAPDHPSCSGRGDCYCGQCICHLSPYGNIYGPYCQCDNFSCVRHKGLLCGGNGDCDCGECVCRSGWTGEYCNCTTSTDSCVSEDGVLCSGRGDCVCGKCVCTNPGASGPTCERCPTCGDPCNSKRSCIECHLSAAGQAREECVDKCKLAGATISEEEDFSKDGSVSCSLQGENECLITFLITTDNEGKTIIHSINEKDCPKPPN

IC50, 50 to 250 nM:
CC(C)(C)OC(=O)N1CCC(C(=O)N[C@@H](CCO[C@H]2C[C@H](CCc3ccc4c(n3)NCCC4)C2)C(=O)O)CC1 [Compound 160, N-(1-(tert-butoxycarbonyl)piperidine-4-carbonyl)-O-(trans-3-(2-(5,6,7,8-tetrahydro-1,8-naphthyridin-2-yl)ethyl)cyclobutyl)homoserine]
O=C(N[C@@H](CCO[C@H]1C[C@H](CCc2ccc3c(n2)NCCC3)C1)C(=O)O)c1ccccc1-c1ccccn1 [Compound 166, N-(2-(pyridin-2-yl)benzoyl)-O-(trans-3-(2-(5,6,7,8-tetrahydro-1,8-naphthyridin-2-yl)ethyl)cyclobutyl)homoserine]
O=C(N[C@@H](CCO[C@H]1C[C@H](CCc2ccc3c(n2)NCCC3)C1)C(=O)O)c1ccccc1N1CCOCC1 [Compound 168, N-(2-morpholinobenzoyl)-O-(trans-3-(2-(5,6,7,8-tetrahydro-1,8-naphthyridin-2-yl)ethyl)cyclobutyl)homoserine]
CCC(CC)(C(=O)N[C@@H](CCO[C@H]1C[C@H](CCc2ccc3c(n2)NCCC3)C1)C(=O)O)c1ccccc1 [Compound 169, N-(2-ethyl-2-phenylbutanoyl)-O-(trans-3-(2-(5,6,7,8-tetrahydro-1,8-naphthyridin-2-yl)ethyl)cyclobutyl)homoserine]
CC1(C(=O)N[C@@H](CCO[C@H]2C[C@@H](CCc3ccc4c(n3)NCCC4)C2)C(=O)O)CCOCC1 [Compound 179, N-(4-methyltetrahydro-2H-pyran-4-carbonyl)-O-(cis-3-(2-(5,6,7,8-tetrahydro-1,8-naphthyridin-2-yl)ethyl)cyclobutyl) homoserine]
Cc1ccc2c(c1)N(C(=O)C1(C(=O)N[C@@H](CCO[C@H]3C[C@H](CCc4ccc5c(n4)NCCC5)C3)C(=O)O)CC1)CC2 [Compound 182, N-(1-(6-methylindoline-1-carbonyl)cyclopropane-1-carbonyl)-O-(trans-3-(2-(5,6,7,8-tetrahydro-1,8-naphthyridin-2-yl)ethyl)cyclobutyl)homoserine]
O=C(O)[C@H](CCO[C@H]1C[C@@H](CCc2ccc3c(n2)NCCC3)C1)NC(=O)C1(C(F)(F)F)CCOCC1 [Compound 183, O-(cis-3-(2-(5,6,7,8-tetrahydro-1,8-naphthyridin-2-yl)ethyl)cyclobutyl)-N-(4-(trifluoromethyl)tetrahydro-2H-pyran-4-carbonyl)homoserine]
O=C(NC(CCOCCCCc1ccc2c(n1)NCCC2)C(=O)O)c1c(Cl)cccc1Cl (stereo not shown) [Compound 188, N-(2,6-dichlorobenzoyl)-O-(4-(5,6,7,8-tetrahydro-1,8-naphthyridin-2-yl)butyl)homoserine]
O=C(NC(CCOCCCCc1ccc2c(n1)NCCC2)C(=O)O)c1c(Cl)cncc1Cl (stereo not shown) [Compound 189, N-(3,5-dichloroisonicotinoyl)-O-(4-(5,6,7,8-tetrahydro-1,8-naphthyridin-2-yl)butyl)homoserine]

IC50, 250 to 1000 nM:
CC1(C(=O)NC(CCOCCCCc2ccc3c(n2)NCCC3)C(=O)O)CCOCC1 (stereo not shown) [Compound 187, N-(4-methyltetrahydro-2H-pyran-4-carbonyl)-O-(4-(5,6,7,8-tetrahydro-1,8-naphthyridin-2-yl)butyl)homoserine]

IC50, < 50 nM:
CC(C)(C)OC(=O)N1CC(C#Cc2ccccc2)(OC(=O)N[C@@H](CCO[C@H]2C[C@H](CCc3ccc4c(n3)NCCC4)C2)C(=O)O)C1 [Compound 159, N-(((1-(tert-butoxycarbonyl)-3-(phenylethynyl)azetidin-3-yl)oxy)carbonyl)-O-(trans-3-(2-(5,6,7,8-tetrahydro-1,8-naphthyridin-2-yl)ethyl)cyclobutyl)homoserine]
O=C(NC(CCO[C@H]1C[C@H](CCc2ccc3c(n2)NCCC3)C1)C(=O)O)C1CCCC(F)(F)C1 (stereo partly drawn) [Compound 161, N-(3,3-difluorocyclohexane-1-carbonyl)-O-(trans-3-(2-(5,6,7,8-tetrahydro-1,8-naphthyridin-2-yl)ethyl)cyclobutyl)homoserine]
CC1(C(=O)N[C@@H](CCO[C@H]2C[C@H](CCc3ccc4c(n3)NCCC4)C2)C(=O)O)CCOCC1 [Compound 164, N-(4-methyltetrahydro-2H-pyran-4-carbonyl)-O-(trans-3-(2-(5,6,7,8-tetrahydro-1,8-naphthyridin-2-yl)ethyl)cyclobutyl)homoserine]
CC(C)(C(=O)N[C@@H](CCO[C@H]1C[C@H](CCc2ccc3c(n2)NCCC3)C1)C(=O)O)C1CCCCC1 [Compound 165, N-(2-cyclohexyl-2-methylpropanoyl)-O-(trans-3-(2-(5,6,7,8-tetrahydro-1,8-naphthyridin-2-yl)ethyl)cyclobutyl)homoserine]
N#CC1(C(=O)N[C@@H](CCO[C@H]2C[C@H](CCc3ccc4c(n3)NCCC4)C2)C(=O)O)CCOCC1 [Compound 171, N-(4-cyanotetrahydro-2H-pyran-4-carbonyl)-O-(trans-3-(2-(5,6,7,8-tetrahydro-1,8-naphthyridin-2-yl)ethyl)cyclobutyl)homoserine]
CC(C)(C)OC(=O)N1CC(C)(C(=O)N[C@@H](CCO[C@H]2C[C@H](CCc3ccc4c(n3)NCCC4)C2)C(=O)O)C1 [Compound 172, N-(1-(tert-butoxycarbonyl)-3-methylazetidine-3-carbonyl)-O-(trans-3-(2-(5,6,7,8-tetrahydro-1,8-naphthyridin-2-yl)ethyl)cyclobutyl)homoserine]
CC(C)(C)OC(=O)N1CC(C(=O)N[C@@H](CCO[C@H]2C[C@H](CCc3ccc4c(n3)NCCC4)C2)C(=O)O)C1 [Compound 173, N-(1-(tert-butoxycarbonyl)azetidine-3-carbonyl)-O-(trans-3-(2-(5,6,7,8-tetrahydro-1,8-naphthyridin-2-yl)ethyl)cyclobutyl)homoserine]
O=C(O)[C@H](CCO[C@H]1C[C@H](CCc2ccc3c(n2)NCCC3)C1)NC(=O)C1(C(F)(F)F)CCOCC1 [Compound 174, O-(trans-3-(2-(5,6,7,8-tetrahydro-1,8-naphthyridin-2-yl)ethyl)cyclobutyl)-N-(4-(trifluoromethyl)tetrahydro-2H-pyran-4-carbonyl)homoserine]
Cc1cc(F)cc(C)c1C(=O)NC(CCOC1CC(CCc2ccc3c(n2)NCCC3)C1)C(=O)O (stereo not shown) [Compound 175]
CCC1(C(=O)N[C@@H](CCO[C@H]2C[C@H](CCc3ccc4c(n3)NCCC4)C2)C(=O)O)CCC(F)(F)CC1 [Compound 181, N-(1-ethyl-4,4-difluorocyclohexane-1-carbonyl)-O-(trans-3-(2-(5,6,7,8-tetrahydro-1,8-naphthyridin-2-yl)ethyl)cyclobutyl)homoserine]
CC(C)(C)OC(=O)NCC1(C(=O)N[C@@H](CCO[C@H]2C[C@@H](CCc3ccc4c(n3)NCCC4)C2)C(=O)O)CCOCC1 [Compound 184, N-(4-(((tert-butoxycarbonyl)amino)methyl)tetrahydro-2H-pyran-4-carbonyl)-O-(cis-3-(2-(5,6,7,8-tetrahydro-1,8-naphthyridin-2-yl)ethyl)cyclobutyl)homoserine]
O=C(O)[C@H](CCO[C@H]1C[C@H](CCc2ccc3c(n2)NCCC3)C1)NC(=O)C1(Cc2cccnc2)CC1 [Compound 185, N-(1-(pyridin-3-ylmethyl)cyclopropane-1-carbonyl)-O-(trans-3-(2-(5,6,7,8-tetrahydro-1,8-naphthyridin-2-yl)ethyl)cyclobutyl)homoserine]
